Test results reported in ChEMBL document CHEMBL1201862, “PubChem BioAssay data set” (2004).
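Following 48 hours of exposure in 96-well plates, responses at five concentrations were used to interpolate endpoints linearly. GI50: concentration for 50% inhibition of growth.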 Calls of active or inactive are those of the source. Rule as the data show it: active = GI50 up to about 1.1 µM and inactive = higher.

Assays:
Assay in all cases: inhibition of tumour cell growth, NCI panel, 48 h
SW-620 = test system: SW-620
MDA-N = test system: MDA-N
SF-295 = test system: SF-295
U-251 = test system: U-251
RXF 393 = test system: RXF 393
IGROV-1 = test system: IGROV-1
NCI/ADR-RES = test system: NCI/ADR-RES
SNB-75 = test system: SNB-75
PC-3 = test system: PC-3
HCT-116 = test system: HCT-116
K562 = test system: K562
MDA-MB-231 = test system: MDA-MB-231
MCF7 = test system: MCF7
MDA-MB-435 = test system: MDA-MB-435
NCI-H226 = test system: NCI-H226
COLO 205 = test system: COLO 205
HCC 2998 = test system: HCC 2998
NCI-H460 = test system: NCI-H460
UO-31 = test system: UO-31
M14 = test system: M14
SR = test system: SR
SK-MEL-5 = test system: SK-MEL-5
Hs-578T = test system: Hs-578T
HOP-62 = test system: HOP-62
NCI-H23 = test system: NCI-H23
A549 = test system: A549
786-0 = test system: 786-0
KM12 = test system: KM12
OVCAR-8 = test system: OVCAR-8
MOLT-4 = test system: MOLT-4
UACC-257 = test system: UACC-257
DU-145 = test system: DU-145
A498 = test system: A498
HT-29 = test system: HT-29
EKVX = test system: EKVX
T47D = test system: T47D
RPMI-8226 = test system: RPMI-8226
SN12C = test system: SN12C
Malme-3M = test system: Malme-3M
CCRF-CEM = test system: CCRF-CEM
OVCAR-5 = test system: OVCAR-5
LOX IMVI = test system: LOX IMVI
SK-MEL-28 = test system: SK-MEL-28
SK-MEL-2 = test system: SK-MEL-2
BT-549 = test system: BT-549
ACHN = test system: ACHN
UACC-62 = test system: UACC-62
SF-539 = test system: SF-539
OVCAR-3 = test system: OVCAR-3
SNB-19 = test system: SNB-19
SF-268 = test system: SF-268
HL-60 = test system: HL-60
SK-OV-3 = test system: SK-OV-3
CAKI-1 = test system: CAKI-1
HCT-15 = test system: HCT-15
OVCAR-4 = test system: OVCAR-4
TK-10 = test system: TK-10
NCI-H522 = test system: NCI-H522

Compound: Cc1nn(-c2ccccc2)c(C)c1/C=N/N=C1\SCC(=O)N1c1ccccc1
- GI50 (SW-620): 33.9 µM (inactive)
- GI50 (MDA-N): 20.9 µM (inactive)
- GI50 (SF-295): 21.5 µM (inactive)
- GI50 (U-251): 25.8 µM (inactive)
- GI50 (RXF 393): 16.5 µM (inactive)
- GI50 (IGROV-1): 32.3 µM (inactive)
- GI50 (NCI/ADR-RES): 18.5 µM (inactive)
- GI50 (SNB-75): 20.4 µM (inactive)
- GI50 (PC-3): 19.2 µM (inactive)
- GI50 (HCT-116): 19.1 µM (inactive)
- GI50 (K562): 25.8 µM (inactive)
- GI50 (MDA-MB-231): 35 µM (inactive)
- GI50 (MCF7): 27.4 µM (inactive)
- GI50 (MDA-MB-435): 20.5 µM (inactive)
- GI50 (NCI-H226): 23.6 µM (inactive)
- GI50 (COLO 205): 14.9 µM (inactive)
- GI50 (HCC 2998): 20.3 µM (inactive)
- GI50 (NCI-H460): 18.3 µM (inactive)
- GI50 (UO-31): 21.5 µM (inactive)
- GI50 (M14): 28.6 µM (inactive)
- GI50 (SR): 25.1 µM (inactive)
- GI50 (SK-MEL-5): 15 µM (inactive)
- GI50 (Hs-578T): 37.2 µM (inactive)
- GI50 (HOP-62): 37.9 µM (inactive)
- GI50 (NCI-H23): 27.5 µM (inactive)
- GI50 (A549): 28.6 µM (inactive)
- GI50 (786-0): 15.8 µM (inactive)
- GI50 (KM12): 25 µM (inactive)
- GI50 (OVCAR-8): 21.7 µM (inactive)
- GI50 (MOLT-4): 30.8 µM (inactive)
- GI50 (UACC-257): 32.4 µM (inactive)
- GI50 (DU-145): 31.8 µM (inactive)
- GI50 (A498): 23.6 µM (inactive)
- GI50 (HT-29): 20.5 µM (inactive)
- GI50 (EKVX): 12.4 µM (inactive)
- GI50 (T47D): 26.5 µM (inactive)
- GI50 (RPMI-8226): 13.4 µM (inactive)
- GI50 (SN12C): 44.7 µM (inactive)
- GI50 (Malme-3M): 21.2 µM (inactive)
- GI50 (CCRF-CEM): 25 µM (inactive)
- GI50 (OVCAR-5): 27.7 µM (inactive)
- GI50 (LOX IMVI): 22.6 µM (inactive)
- GI50 (SK-MEL-28): 22.3 µM (inactive)
- GI50 (SK-MEL-2): 25.7 µM (inactive)
- GI50 (BT-549): 22 µM (inactive)
- GI50 (ACHN): 17.3 µM (inactive)
- GI50 (UACC-62): 21.4 µM (inactive)
- GI50 (SF-539): 22.9 µM (inactive)
- GI50 (OVCAR-3): 24.9 µM (inactive)
- GI50 (SNB-19): 43.1 µM (inactive)
- GI50 (SF-268): 28.4 µM (inactive)
- GI50 (HL-60): 30.8 µM (inactive)
- GI50 (SK-OV-3): 29.8 µM (inactive)
- GI50 (CAKI-1): 19.4 µM (inactive)
- GI50 (HCT-15): 17.9 µM
- GI50 (OVCAR-4): 10.6 µM (inactive)
- GI50 (TK-10): 26.2 µM (inactive)

Compound: N#Cc1cc2c(cc1C#N)/C(=N\c1cccc(N)n1)N/C2=N\c1cccc(N)n1
- GI50 (SW-620): 11.4 µM (inactive)
- GI50 (MDA-N): 20.3 µM (inactive)
- GI50 (SF-295): 21.3 µM (inactive)
- GI50 (U-251): 32.5 µM (inactive)
- GI50 (IGROV-1): 20.7 µM (inactive)
- GI50 (NCI/ADR-RES): 19.2 µM (inactive)
- GI50 (SNB-75): 15.6 µM (inactive)
- GI50 (PC-3): 17.9 µM (inactive)
- GI50 (HCT-116): 11.1 µM (inactive)
- GI50 (K562): 13.4 µM (inactive)
- GI50 (NCI-H522): 9.38 µM (inactive)
- GI50 (MDA-MB-231): 15.2 µM (inactive)
- GI50 (MCF7): 18.6 µM (inactive)
- GI50 (MDA-MB-435): 19.1 µM (inactive)
- GI50 (NCI-H226): > 100 µM (inactive)
- GI50 (COLO 205): 15 µM (inactive)
- GI50 (HCC 2998): 20.5 µM (inactive)
- GI50 (NCI-H460): 22.4 µM (inactive)
- GI50 (UO-31): 15.7 µM (inactive)
- GI50 (M14): 17.5 µM (inactive)
- GI50 (SR): 4.85 µM (inactive)
- GI50 (SK-MEL-5): 7.16 µM (inactive)
- GI50 (Hs-578T): 18.5 µM (inactive)
- GI50 (HOP-62): 24.3 µM (inactive)
- GI50 (NCI-H23): 16.1 µM (inactive)
- GI50 (A549): 40.8 µM (inactive)
- GI50 (786-0): 12.9 µM (inactive)
- GI50 (KM12): 36.8 µM (inactive)
- GI50 (OVCAR-8): 23.6 µM (inactive)
- GI50 (MOLT-4): 3.78 µM (inactive)
- GI50 (UACC-257): 28.1 µM (inactive)
- GI50 (DU-145): > 100 µM (inactive)
- GI50 (A498): > 10 µM (inactive)
- GI50 (HT-29): 23.1 µM (inactive)
- GI50 (EKVX): > 100 µM (inactive)
- GI50 (T47D): 21.8 µM (inactive)
- GI50 (RPMI-8226): 32.7 µM (inactive)
- GI50 (SN12C): 32.9 µM (inactive)
- GI50 (Malme-3M): 14.3 µM (inactive)
- GI50 (CCRF-CEM): 4.74 µM (inactive)
- GI50 (OVCAR-5): > 100 µM (inactive)
- GI50 (LOX IMVI): 18.8 µM (inactive)
- GI50 (SK-MEL-28): 18.8 µM (inactive)
- GI50 (SK-MEL-2): 21.6 µM (inactive)
- GI50 (BT-549): 32.2 µM (inactive)
- GI50 (ACHN): 20.4 µM (inactive)
- GI50 (UACC-62): 15.2 µM (inactive)
- GI50 (SF-539): 6.75 µM (inactive)
- GI50 (OVCAR-3): 29.5 µM (inactive)
- GI50 (SNB-19): 70 µM (inactive)
- GI50 (SF-268): 15.1 µM (inactive)
- GI50 (HL-60): 19.1 µM (inactive)
- GI50 (SK-OV-3): 13.7 µM (inactive)
- GI50 (CAKI-1): 15.8 µM (inactive)
- GI50 (HCT-15): 16.3 µM
- GI50 (TK-10): 19.3 µM (inactive)
